Experimental data as given in ChEMBL document CHEMBL4480416, “Inducing Secondary Metabolite Production by Co-culture of the Endophytic Fungus Phoma sp. and the Symbiotic Fungus Armillaria sp” (2019).
Values after ≈ are worked out from the molar mass of the structure shown. Active and inactive are the calls of the source. The calls are words filed in the database; no cut-off is given here.

Assays:
HL-60 = test: Cytotoxicity against human HL60 cells assessed as reduction in cell viability at 40 uM after 48 hrs by MTS assay; type: functional, cell-based
SMMC-7721 = test: Cytotoxicity against human SMMC7721 cells assessed as reduction in cell viability at 40 uM after 48 hrs by MTS assay; type: functional, cell-based
A549 = test: Cytotoxicity against human A549 cells assessed as reduction in cell viability at 40 uM after 48 hrs by MTS assay; type: functional, cell-based
MCF7 = test: Cytotoxicity against human MCF7 cells assessed as reduction in cell viability at 40 uM after 48 hrs by MTS assay; type: functional, cell-based
SW480 = test: Cytotoxicity against human SW480 cells assessed as reduction in cell viability at 40 uM after 48 hrs by MTS assay; type: functional, cell-based
Bacillus subtilis = test: Antimicrobial activity against Bacillus subtilis at 0.5 to 256 ug/ml after 24 hrs by two-fold serial micro dilution method; type: functional
Escherichia coli = test: Antimicrobial activity against Escherichia coli at 0.5 to 256 ug/ml after 24 hrs by two-fold serial micro dilution method; type: functional
Staphylococcus aureus = test: Antimicrobial activity against Staphylococcus aureus at 0.5 to 256 ug/ml after 24 hrs by two-fold serial micro dilution method; type: functional
Candida albicans = test: Antifungal activity against Candida albicans at 0.5 to 256 ug/ml after 4 days by two-fold serial micro dilution method; type: functional, organism-based

Compound	Activity (HL-60)	Activity (SMMC-7721)	Activity (A549)	Activity (MCF7)	Activity (SW480)	Activity (Bacillus subtilis)	Activity (Escherichia coli)	Activity (Staphylococcus aureus)	Activity (Candida albicans)	MIC (Bacillus subtilis) [µg/mL]	MIC (Escherichia coli) [µg/mL]	MIC (Staphylococcus aureus) [µg/mL]	MIC (Candida albicans) [µg/mL]
CCC[C@@H](O)[C@@H]1Oc2ccccc2[C@@H]1O	inactive	inactive	inactive	inactive	inactive	inactive	inactive	inactive	inactive				
CCC[C@H](O)C/C=C/[C@@H](O)CCCC(=O)OC[C@@H](O)CO	inactive	inactive	inactive	inactive	inactive	inactive	inactive	inactive	inactive				
CCCC[C@@H](O)[C@H](O)c1ccccc1O	inactive	inactive	inactive	inactive	inactive	inactive	inactive	inactive	inactive				
NC[C@H]1O[C@H](O[C@H]2[C@H](O)[C@@H](O[C@H]3O[C@H](CO)[C@@H](O)[C@H](N)[C@H]3O)[C@H](N)C[C@@H]2N)[C@H](O)[C@@H](O)[C@@H]1O [KANAMYCIN]										4 (≈ 8.26 µM)	8 (≈ 16.5 µM)	4 (≈ 8.26 µM)	
NYSTATIN													4
CCC[C@H](O)C/C=C/[C@@H](O)CCCC(=O)OCCCCCNC(C)=O	inactive	inactive	inactive	inactive	inactive	inactive	inactive	inactive	inactive				
CCC[C@H](O)C/C=C/[C@@H](O)CCCC(=O)OC	inactive	inactive	inactive	inactive	inactive	inactive	inactive	inactive	inactive				
